Target: T1, PDGFRA T674I (Homo sapiens, UniProt P16234, T674I)
T1 construct: purchased Thermo Fisher Scientific (Life Technologies) SelectScreen
Test: SelectScreen Z'LYTE
Type: biochemical
How it was run: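 Percent values come from Thermo SelectScreen profiling of NU5455, combining activity and binding assays. CSF1R was run in Z'LYTE format at Km app ATP, and CAMK1 in Adapta format with ATP listed at 10.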

T1 sequence (P16234 24-1089 T674I): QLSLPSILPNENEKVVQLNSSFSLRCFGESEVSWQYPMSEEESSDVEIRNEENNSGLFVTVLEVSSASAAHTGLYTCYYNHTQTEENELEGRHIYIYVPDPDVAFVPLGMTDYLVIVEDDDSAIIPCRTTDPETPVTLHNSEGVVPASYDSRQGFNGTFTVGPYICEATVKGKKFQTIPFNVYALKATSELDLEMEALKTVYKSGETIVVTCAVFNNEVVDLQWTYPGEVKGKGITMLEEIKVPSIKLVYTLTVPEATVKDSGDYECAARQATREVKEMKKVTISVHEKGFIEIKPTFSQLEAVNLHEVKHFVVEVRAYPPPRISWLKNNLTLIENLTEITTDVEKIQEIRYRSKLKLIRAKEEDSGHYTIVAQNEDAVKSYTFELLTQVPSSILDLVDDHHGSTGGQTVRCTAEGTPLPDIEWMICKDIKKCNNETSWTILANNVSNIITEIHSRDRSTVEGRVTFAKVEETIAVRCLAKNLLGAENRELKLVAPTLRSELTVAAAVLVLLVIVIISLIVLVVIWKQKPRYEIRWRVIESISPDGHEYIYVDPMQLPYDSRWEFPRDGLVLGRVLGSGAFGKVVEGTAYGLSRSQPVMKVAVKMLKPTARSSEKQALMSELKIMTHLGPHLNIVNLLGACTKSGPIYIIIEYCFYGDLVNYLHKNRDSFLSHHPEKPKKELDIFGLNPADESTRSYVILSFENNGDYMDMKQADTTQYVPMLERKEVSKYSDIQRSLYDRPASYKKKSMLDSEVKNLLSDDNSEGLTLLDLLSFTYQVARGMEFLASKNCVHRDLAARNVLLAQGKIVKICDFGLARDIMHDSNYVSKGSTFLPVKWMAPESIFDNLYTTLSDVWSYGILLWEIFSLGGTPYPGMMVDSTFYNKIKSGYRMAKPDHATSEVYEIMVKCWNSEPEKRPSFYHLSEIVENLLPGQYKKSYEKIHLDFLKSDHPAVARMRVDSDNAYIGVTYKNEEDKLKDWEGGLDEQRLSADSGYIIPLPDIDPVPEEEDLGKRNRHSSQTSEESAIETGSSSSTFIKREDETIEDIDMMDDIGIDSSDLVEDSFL

Question: For `CN(C(=O)CN1CCOCC1)c1ccc2sc3c(-c4cccc5c(=O)cc(N6CC7CCC(C6)O7)oc45)cccc3c2c1` [NU5455], which inhibition at 1 µM is on record?
Answer: -8.9%

— PMC6934184, “Selective DNA-PKcs inhibition extends the therapeutic index of localized radiotherapy and chemotherapy” (The Journal of Clinical Investigation, 2019)
